In the OPERA property sets (Mansouri et al. 2018) one finds logP data, which are given here for 14 molecules.

One may read the logP as a log measure of how a compound divides between an organic and an aqueous phase. Low values mean lower lipophilicity, high ones higher lipophilicity. Molecule `CCCCCCCCCCCCCc1ccccc1O` yielded a log partition coefficient (logP) of 8.61. Molecule `CCCCCCCCCCCc1ccc(O)cc1` yielded a logP of 7.18.

For the molecule `CCCCCc1ccc(O)c(O)c1`, the log partition coefficient (logP) was 3.11. Then `CCCCCCCCCCCc1ccc(O)c(O)c1`, with 6.97; and `CCCCCCCCCCCc1cccc(O)c1O`, with 6.3; and `CCCCCCCCCCCCc1ccc(O)cc1`, with 7.91. The molecule `CCCCCCCCCCCCCc1ccc(O)cc1O` showed a logP of 6.84. As for `CCCCCCCCCc1cccc(O)c1`, the lipophilicity (logP) was 5.61. Turning to `CCCCCCCCCc1ccc(O)cc1`, the lipophilicity (logP) turned out to be 5.76.

Turning to `CCCCCCCCCCCc1ccccc1O`, the log partition coefficient (logP) amounted to 7.17. Then `CCCCCCCCCCCCCc1cccc(O)c1O`, with 7.75. Turning to `CCCCCCCCCc1ccccc1O`, the logP stood at 5.76. `CCCCCCCCCCCc1cccc(O)c1` registered a logP of 6.98. Molecule `CCCCCCCCCCCCCCCc1ccc(O)cc1O` returned a lipophilicity (logP) of 8.29.
